According to patent US8637511B2, “Aminopyrimidines useful as kinase inhibitors” (Vertex Pharmaceuticals Incorporated, priority 2005, dated 2014):
Several values for one entry are separate records, joined by “and”; a condition that tells them apart may be missing. Equal values may be shown once. Read-outs that look alike come from different tables or passages of the source.

What was measured:
Aurora-1 (Aurora B) = Aurora-1 (Aurora B) (Homo sapiens, UniProt Q96GD4); experiment: Aurora-1 (Aurora B) inhibition assay (radiometric); type: biochemical; settings: read-out: Aurora B kinase Ki value
Procedure: An assay buffer solution was prepared which consisted of 25 mM HEPES (pH 7.5), 10 mM MgCl2, 0.1% BSA and 10% glycerol. […] To 22 μL of the Aurora-B solution, in a 96-well plate, was added 2 μl of a compound stock solution in DMSO and the mixture allowed to equilibrate for 10 minutes at 25° C. The enzyme reaction was initiated by the addition of 16 μl stock [γ-^33P]-ATP solution (˜20 nCi/μL) prepared in assay buffer, to a final assay concentration of 800 μM. The reaction was stopped after 3 hours by the addition of 16 μL 500 mM phosphoric acid and the levels of ^33P incorporation into the peptide substrate were determined by the following method.
A phosphocellulose 96-well plate (Millipore, Cat no. MAPHNOB50) was pre-treated with 100 μL of a 100 mM phosphoric acid prior to the addition of the enzyme reaction mixture (40 μL). The solution was left to soak on to the phosphocellulose membrane for 30 minutes and the plate subsequently washed four times with 200 μL of a 100 mM phosphoric acid. […] Levels of non-enzyme catalyzed background radioactivity were determined by adding 16 μL of the 500 mM phosphoric acid to control wells, containing all assay components (which acts to denature the enzyme), prior to the addition of the [γ-^33P]-ATP solution. Levels of enzyme catalyzed. ^33P incorporation were calculated by subtracting mean background counts from those measured at each inhibitor concentration. […] Ki values were calculated from initial rate data by non-linear regression using the Prism software package (Prism 3.0, Graphpad Software, San Diego, Calif.).

Colo205 cells = experiment: Analysis of cell proliferation and viability; type: cell-based; settings: Homo sapiens, read-out: IC50 value
Procedure: Colo205 cells were seeded in 96 well plates and serially diluted compound was added to the wells in duplicate. Control groups included untreated cells, the compound diluent (0.1% DMSO alone) and culture medium without cells.
To measure proliferation, 3 h prior to the end of the experiment 0.5 μCi of 3H thymidine was added to each well. Cells were then harvested and the incorporated radioactivity counted on a Wallac microplate beta-counter. Cell viability was assessed using Promega CellTiter 96AQ to measure MTS conversion. Dose response curves were calculated using either Prism 3.0 (GraphPad) or SoftMax Pro 4.3.1 LS (Molecular Devices) software.

Aurora-2 (Aurora A) = target: T1, Aurora-2 (Aurora A) (Homo sapiens, UniProt O14965); experiment: Aurora-2 (Aurora A) inhibition assay, coupled enzyme; type: biochemical
T1 sequence (O14965 1-403): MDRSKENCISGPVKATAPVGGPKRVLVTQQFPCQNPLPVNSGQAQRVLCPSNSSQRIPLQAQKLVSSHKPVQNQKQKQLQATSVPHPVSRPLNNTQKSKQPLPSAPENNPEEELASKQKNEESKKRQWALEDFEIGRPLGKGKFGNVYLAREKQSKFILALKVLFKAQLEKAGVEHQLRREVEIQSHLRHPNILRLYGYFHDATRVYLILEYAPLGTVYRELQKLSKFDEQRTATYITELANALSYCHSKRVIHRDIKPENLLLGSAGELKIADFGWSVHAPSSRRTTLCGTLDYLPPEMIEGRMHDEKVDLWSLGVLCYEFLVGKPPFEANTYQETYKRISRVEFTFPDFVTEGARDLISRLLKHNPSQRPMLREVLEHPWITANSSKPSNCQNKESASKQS
Procedure: Assays were carried out in a mixture of 100 mM Hepes (pH7.5), 10 mM MgCl2, 1 mM DTT, 25 mM NaCl, 2.5 mM phosphoenolpyruvate, 300 μM NADH, 30 μg/ml pyruvate kinase and 10 μg/ml lactate dehydrogenase. […] Assays were carried out at 30° C. and in the presence of 40 nM Aurora-2.
The plate was preincubated for 10 minutes at 30° C. and the reaction initiated by addition of 10 μl of Aurora-2. Initial reaction rates were determined with a Molecular Devices SpectraMax Plus plate reader over a 10 minute time course. IC50 and Ki data were calculated from non-linear regression analysis using the Prism software package (GraphPad Prism version 3.0cx for Macintosh, GraphPad Software, San Diego Calif., USA).

[1] = COLO 205, Colo205 cells, incubated for 72 hours
[2] = read-out: Aurora A kinase Ki value
[3] = COLO 205, Colo205 cells, incubated for 96 hours

Aurora-1 (Aurora B), sequence (Q96GD4 whole entry): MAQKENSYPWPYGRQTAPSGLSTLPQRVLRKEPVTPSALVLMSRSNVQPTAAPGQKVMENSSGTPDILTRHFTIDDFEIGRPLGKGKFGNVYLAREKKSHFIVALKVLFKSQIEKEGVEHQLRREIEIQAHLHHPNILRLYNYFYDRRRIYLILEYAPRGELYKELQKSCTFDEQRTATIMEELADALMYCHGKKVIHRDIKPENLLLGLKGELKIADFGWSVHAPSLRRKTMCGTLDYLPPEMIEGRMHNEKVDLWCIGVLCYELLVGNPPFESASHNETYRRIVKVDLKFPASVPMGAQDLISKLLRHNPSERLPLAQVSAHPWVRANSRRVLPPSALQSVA

Row | SMILES | Ki (Aurora-1 (Aurora B)) | IC50 (Colo205 cells; [1]) [nM] | Ki (Aurora-2 (Aurora A); [2]) [nM] | IC50 (Colo205 cells; [3]) [nM] | further results
1 | Cc1cc(Nc2cc(N3CC(N4CCCC4)C3)nc(Sc3ccc4nc(C(F)(F)F)n(C)c4c3)n2)[nH]n1 [Compound 176] | 10 to 50 nM and < 25 nM | ≤ 30 |  |  | 
2 | CCOc1ccc(Sc2nc(Nc3cc(C)n[nH]3)cc(N3CC(C(=O)N4CCCC4)C3)n2)cc1 [Compound 141] | 50 to 2000 nM | > 200 | 1 to 5 |  | 
3 | CCC(=O)Nc1ccc(Sc2nc(Nc3cc(C)n[nH]3)cc(N3CC(O)(c4ccccc4)C3)n2)cc1 [Compound 86] | ≤ 10 nM |  | ≤ 1 | 50 to 1000 | 
4 | Cc1cc(Nc2cc(N3CC(F)(C4CC4)C3)nc(Nc3ccc4nc(C(F)(F)F)[nH]c4c3)n2)[nH]n1 [Compound 210] | 50 to 2000 nM | > 200 | 1 to 5 |  | 
5 | Cc1cc(Nc2cc(N3CCC3)nc(Sc3ccc(NC(=O)c4cccc(Cl)c4Cl)cc3)n2)n[nH]1 [Compound 42] |  |  |  | 50 to 1000 | 
6 | Cc1cc(Nc2cc(N3CCC3)nc(Sc3ccc(NC(=O)Cc4ccc(Cl)cc4)cc3)n2)n[nH]1 [Compound 36] | 10 to 50 nM and < 25 nM |  | ≤ 1 | 50 to 1000 | 
7 | CCC(=O)Nc1ccc(Sc2nc(Nc3cc(C)n[nH]3)cc(N3CC(O)(CC(C)(C)C)C3)n2)cc1 [Compound 84] |  |  |  | ≤ 50 | 
8 | CCC(=O)Nc1ccc(Sc2nc(Nc3cc(C)n[nH]3)cc(N3CC(O)(c4ccccc4C)C3)n2)cc1 [Compound 93] | 50 to 2000 nM |  | ≤ 1 | 50 to 1000 | 
9 | Cc1cc(Nc2cc(N3CCC3)nc(Sc3ccc(NC(=O)c4cc(F)ccc4F)cc3)n2)n[nH]1 [Compound 45] | 10 to 50 nM |  |  | 50 to 1000 | 
10 | Cc1cc(Nc2cc(N3CC(F)(F)C3)nc(Sc3ccc(NC(=O)CC(F)(F)F)cc3)n2)[nH]n1 [Compound 130] | 10 to 50 nM and < 25 nM | 30 to 200 | 1 to 5 |  | 
11 | Cc1cc(Nc2cc(N3CC(C)(C#N)C3)nc(Sc3ccc(NC(=O)c4ccccc4C(F)(F)F)cc3)n2)[nH]n1 [Compound 122] | ≤ 10 nM | 30 to 200 | ≤ 1 |  | 
12 | Cc1cc(Nc2cc(N3CCC3)nc(Sc3ccc(C(=O)NC4CC4)cc3)n2)n[nH]1 [Compound 18] | 10 to 50 nM and < 25 nM |  |  | 50 to 1000 | Ki (Aurora-2 (Aurora A)): 5 to 200 nM
13 | CCC(=O)Nc1ccc(Sc2nc(Nc3cc(C)n[nH]3)cc(N3CC(O)(C4CCCCC4)C3)n2)cc1 [Compound 101] | ≤ 10 nM |  | ≤ 1 | ≤ 50 | 
14 | Cc1cc(Nc2cc(N3CC(F)(C4CC4)C3)nc(Sc3ccc4nc(C)ccc4c3)n2)[nH]n1 [Compound 154] | 10 to 50 nM and < 25 nM |  | ≤ 1 | 50 to 1000 | 
15 | CCC(Nc1ccc(Sc2nc(Nc3cc(C)n[nH]3)cc(N3CC(O)(C4CC4)C3)n2)cc1)C(F)(F)F (stereo not shown) [Compound 136] | 50 to 2000 nM | > 200 | ≤ 1 |  | 
16 | Cc1cc(Nc2cc(N3CC(F)(C4CC4)C3)nc(Sc3ccc(NC(=O)CCC(F)(F)F)cc3)n2)[nH]n1 [Compound 157] |  |  |  |  | IC50 (Colo205 cells; COLO 205, 72 h): ≤ 30 nM; IC50 (Colo205 cells; COLO 205, 96 h): ≤ 50 nM
17 | CSc1ccccc1C(=O)Nc1ccc(Sc2nc(Nc3cc(C)[nH]n3)cc(N3CCC3)n2)cc1 [Compound 165] |  |  |  | 50 to 1000 | 
18 | COc1cccc(C(=O)Nc2ccc(Sc3nc(Nc4cc(C)n[nH]4)cc(N4CCC4)n3)cc2)c1 [Compound 116] |  | > 200 |  |  | 

Row | SMILES | Ki (Aurora-1 (Aurora B)) | IC50 (Colo205 cells; [1]) [nM] | Ki (Aurora-2 (Aurora A); [2]) [nM] | IC50 (Colo205 cells; [3]) [nM] | further results
19 | Cc1cc(Nc2cc(N3CCC3)nc(Sc3ccc(NC(=O)c4sccc4Cl)cc3)n2)n[nH]1 [Compound 43] | 10 to 50 nM |  | 1 to 5 | 50 to 1000 | 
20 | Cc1cc(Nc2cc(N3CC(O)(C4CC4)C3)nc(Sc3ccc(N4CCCC4=O)cc3)n2)n[nH]1 [Compound 133] | 10 to 50 nM and < 25 nM | ≤ 30 | ≤ 1 |  | 
21 | COC(=O)c1ccc(Sc2nc(Nc3cc(C4CC4)[nH]n3)cc(N3CC(O)(C4CC4)C3)n2)cc1 [Compound 106] | ≤ 10 nM |  | ≤ 1 | 50 to 1000 | 
22 | Cc1cc(Nc2cc(N3CCC3)nc(Sc3ccc(NC(=O)c4ccccc4Cl)nc3)n2)[nH]n1 [Compound 207] |  | > 200 | 1 to 5 |  | 
23 | Cc1cc(Nc2cc(N3CC(F)(C4CC4)C3)nc(Sc3ccc4nc(CC(F)(F)F)n(C)c4c3)n2)[nH]n1 [Compound 187] | ≤ 10 nM | ≤ 30 | ≤ 1 |  | 
24 | Cc1cc(Nc2cc(N3CC(F)(C4CC4)C3)nc(Sc3ccc(N)cc3)n2)[nH]n1 [Compound 174] |  | > 200 |  |  | 
25 | CCN(C)C(=O)c1ccc(Sc2nc(Nc3cc(C)[nH]n3)cc(N3CC(O)(C4CC4)C3)n2)cc1 [Compound 125] | 50 to 2000 nM | > 200 | 1 to 5 |  | 
26 | Cc1cc(Nc2cc(N3CC(O)(C4CC4)C3)nc(Sc3ccc4nc(C)ccc4c3)n2)[nH]n1 [Compound 153] | ≤ 10 nM |  | ≤ 1 | ≤ 50 | 
27 | Cc1cc(Nc2cc(N3CCC3)nc(Sc3ccc(NC(=O)c4cccc(CN5CCC5)c4)cc3)n2)[nH]n1 [Compound 140] | 50 to 2000 nM |  |  | 50 to 1000 | 
28 | Cc1cc(Nc2cc(N3CCC3)nc(Sc3ccc(NC(=O)c4ccccc4C(F)F)cc3)n2)[nH]n1 [Compound 120] |  | > 200 |  |  | 
29 | CCC(=O)Nc1ccc(Sc2nc(Nc3cc(C)n[nH]3)cc(N3CC(O)(CC)C3)n2)cc1 [Compound 98] |  |  |  | 50 to 1000 | 
30 | Cc1cc(Nc2cc(C(=O)N3CCC3)nc(Sc3ccc(NC(=O)c4ccccc4Cl)cc3)n2)n[nH]1 [Compound 62] | 50 to 2000 nM |  |  | > 1000 | 
31 | CC(=O)Nc1ccc(Nc2nc(Nc3cc(C)n[nH]3)cc(N3CC(F)(C4CC4)C3)n2)cc1 [Compound 201] | 50 to 2000 nM |  | 5 to 200 | 50 to 1000 | 
32 | CC(=O)OC1(C2CC2)CN(c2cc(Nc3cc(C)n[nH]3)nc(Sc3ccc(NC(=O)C4CC4)cc3)n2)C1 [Compound 107] | 10 to 50 nM |  | ≤ 1 | ≤ 50 | 
33 | Cc1cc(Nc2cc(N3CC(F)(C4CC4)C3)nc(Sc3ccc(NC(=O)C4(C(F)(F)F)CC4)cc3)n2)[nH]n1 [Compound 143] |  |  |  |  | IC50 (Colo205 cells; COLO 205, 72 h): ≤ 30 nM
34 | CCC(=O)Nc1ccc(Sc2nc(CCN3CCC3)cc(Nc3cc(C)n[nH]3)n2)cc1 [Compound 197] | 50 to 2000 nM | > 200 | 5 to 200 |  | 
35 | CCC(=O)Nc1ccc(Sc2nc(Nc3cc(C)[nH]n3)cc(N3CC(F)(C4CC4)C3)n2)cc1 [Compound 147] |  |  | 1 to 5 |  | IC50 (Colo205 cells; COLO 205, 72 h): 30 to 200 nM
